As a reminder, the IC50 is the concentration at which inhibition is half-maximal.

Counter-ions that a name gives are not always drawn.

One assay addresses Bcl-2 protein (histag-Bcl-2, UniProtKB P10415) (Homo sapiens (Human), UniProt P10415). Put plainly: Inhibition of Bcl-2 by the fluorescence polarisation technique. The note with it: fluorescence polarisation test; method A, or method B where underlined (underlining not visible); read-out: IC50 (nM) Bcl-2 FP. It is filed as binding. An excerpt: Inhibition of Bcl-2 by the fluorescence polarisation technique

The test system of assay [1] is RS4;11 leukaemia tumour line. Kind of assay: In vitro cytotoxicity, Microculture Tetrazolium Assay (MTT). It is filed as cell-based. The settings on record: Homo sapiens; RS4;11 cells, 48 hours exposure. On the procedure:
The cytotoxicity studies were carried out on the RS4;11 leukaemia tumour line.
The cells are distributed onto microplates and exposed to the test compounds for 48 hours. The cell viability is then quantified by a colorimetric assay, the Microculture Tetrazolium Assay (Cancer Res., 1987, 47, 939-942).

Chain of Bcl-2 protein (P10415 whole entry): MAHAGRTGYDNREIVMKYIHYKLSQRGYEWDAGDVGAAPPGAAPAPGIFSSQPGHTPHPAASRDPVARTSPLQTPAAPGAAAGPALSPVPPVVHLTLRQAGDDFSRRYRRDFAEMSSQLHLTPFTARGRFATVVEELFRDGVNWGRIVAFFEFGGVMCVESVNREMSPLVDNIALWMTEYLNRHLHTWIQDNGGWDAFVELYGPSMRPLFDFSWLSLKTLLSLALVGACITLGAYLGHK

As for `Cc1cc(C(=O)N(c2ccccc2)c2ccccc2)cn1-c1ccccc1C(=O)N1Cc2ccccc2C[C@H]1CN` [Example 5, 1-(2-{[(3S)-3-(Aminomethyl)-3,4-dihydroisoquinolin-2(1H)-yl]-carbonyl}phenyl)-5-methyl-N,N-diphenyl-1H-pyrrole-3-carboxamide trifluoroacetate], the IC50 at Bcl-2 protein came to 213 nM; in assay [1], 2590 nM.
For `Cc1cc(C(=O)N(c2ccccc2)c2ccccc2)cn1-c1cc(O)ccc1C(=O)N1Cc2ccccc2C[C@H]1CN` [Example 6, 1-(2-{[(3S)-3-(Aminomethyl)-3,4-dihydroisoquinolin-2(1H)-yl]-carbonyl}-5-hydroxyphenyl)-5-methyl-N,N-diphenyl-1H-pyrrole-3-carboxamide], in that order: 50.5 nM and 915 nM.
On to `Cc1cc(C(=O)N(c2ccccc2)c2ccc3[nH]ccc3c2)cn1-c1ccccc1C(=O)N1Cc2ccccc2C[C@H]1CN(C)C` [Example 10, 1-(2-{[(3S)-3-[(Dimethylamino)methyl]-3,4-dihydroisoquinolin-2(1H)-yl]carbonyl}phenyl)-N-(1H-indol-5-yl)-5-methyl-N-phenyl-1H-pyrrole-3-carboxamide], for which the IC50 at Bcl-2 protein is 146 nM; in assay [1], 2220 nM.
For `Cc1cc(C(=O)N(c2ccccc2)c2ccc(O)cc2)cn1-c1cc(C(F)(F)F)ccc1C(=O)N1Cc2ccccc2C[C@H]1CN(C)C` [Example 12, 1-[2-{[(3S)-3-[(Dimethylamino)methyl]-3,4-dihydroisoquinolin-2(1H)-yl]carbonyl}-5-(trifluoromethyl)phenyl]-N-(4-hydroxyphenyl)-5-methyl-N-phenyl-1H-pyrrole-3-carboxamide], in that order: 120 nM and 1810 nM.
For `Cc1cc(C(=O)N(c2ccccc2)c2ccc(O)cc2)cn1-c1cc(Cl)ccc1C(=O)N1Cc2ccccc2C[C@H]1CN(C)C` [Example 13, 1-(5-Chloro-2-{[(3S)-3-[(dimethylamino)methyl]-3,4-dihydroisoquinolin-2(1H)-yl]carbonyl}phenyl)-N-(4-hydroxyphenyl)-5-methyl-N-phenyl-1H-pyrrole-3-carboxamide], in that order: 16.2 nM and 462 nM.
For `Cc1cc(C(=O)N(c2ccccc2)c2ccc(O)cc2)cn1-c1cc(F)ccc1C(=O)N1Cc2ccccc2C[C@H]1CN(C)C` [Example 14, 1-(2-{[(3S)-3-[(Dimethylamino)methyl]-3,4-dihydroisoquinolin-2(1H)-yl]carbonyl}-5-fluorophenyl)-N-(4-hydroxyphenyl)-5-methyl-N-phenyl-1H-pyrrole-3-carboxamide], the IC50 at Bcl-2 protein was determined as 24.8 nM; in assay [1] it was 1270 nM.
Regarding `Cc1cc(C(=O)N(c2ccccc2)c2ccc(O)cc2)cn1-c1cc(O)ccc1C(=O)N1Cc2ccccc2C[C@H]1CN1CCOCC1` [Example 15, 1-(5-Hydroxy-2-{[(3S)-3-(morpholin-4-ylmethyl)-3,4-dihydroisoquinolin-2(1H)-yl]carbonyl}phenyl)-N-(4-hydroxyphenyl)-5-methyl-N-phenyl-1H-pyrrole-3-carboxamide], the results for the IC50 (on Bcl-2 protein; in assay [1]) were 22.1 nM and 759 nM, respectively.
As for `Cc1cc(C(=O)N(c2ccccc2)c2ccc(O)cc2)cn1-c1cc(Br)c(Br)cc1C(=O)N1Cc2ccccc2C[C@H]1CN1CCN(C)CC1` [Example 16, 1-(4,5-Dibromo-2-{[(3S)-3-[(4-methylpiperazin-1-yl)methyl]-3,4-dihydroisoquinolin-2(1H)-yl]carbonyl}phenyl)-N-(4-hydroxyphenyl)-5-methyl-N-phenyl-1H-pyrrole-3-carboxamide], the figures for the 50% inhibitory concentration (IC50) (at Bcl-2 protein; in assay [1]) were 29.6 nM and 656 nM, respectively.
For `Cc1cc(C(=O)N(c2ccccc2)c2ccc(O)cc2)cn1-c1cc(O)ccc1C(=O)N1Cc2ccccc2C[C@H]1CN1CCN(C)CC1` [Example 17, 1-(5-Hydroxy-2-{[(3S)-3-[(4-methylpiperazin-1-yl)methyl]-3,4-dihydroisoquinolin-2(1H)-yl]carbonyl}phenyl)-N-(4-hydroxyphenyl)-5-methyl-N-phenyl-1H-pyrrole-3-carboxamide], in that order: 11.4 nM and 1010 nM.
As to `Cc1cc(C(=O)N(c2ccccc2)c2ccc(O)cc2)cn1-c1cccc(Cl)c1C(=O)N1Cc2ccccc2C[C@H]1CN(C)C` [Example 18, 1-(3-Chloro-2-{[(3S)-3-[(dimethylamino)methyl]-3,4-dihydroisoquinolin-2(1H)-yl]carbonyl}phenyl)-N-(4-hydroxyphenyl)-5-methyl-N-phenyl-1H-pyrrole-3-carboxamide], the IC50 is 44.6 nM at Bcl-2 protein and 1130 nM in assay [1].
Regarding `Cc1cc(C(=O)N(c2ccccc2)c2ccc(O)cc2)cn1-c1ccc(OC(F)(F)F)cc1C(=O)N1Cc2ccccc2C[C@H]1CN1CCN(C)CC1` [Example 19, N-(4-Hydroxyphenyl)-5-methyl-1-[2-{[(3S)-3-[(4-methylpiperazin-1-yl)methyl]-3,4-dihydroisoquinolin-2(1H)-yl]carbonyl}-4-(trifluoromethoxy)phenyl]-N-phenyl-1H-pyrrole-3-carboxamide], the IC50 on Bcl-2 protein turned out to be 245 nM; in assay [1], 2360 nM.
For `Cc1cc(C(=O)N(c2ccccc2)c2ccc(O)cc2)cn1-c1cc(F)c(F)cc1C(=O)N1Cc2ccccc2C[C@H]1CN1CCN(C)CC1` [Example 20, 1-(4,5-Difluoro-2-{[(3S)-3-[(4-methylpiperazin-1-yl)methyl]-3,4-dihydroisoquinolin-2(1H)-yl]carbonyl}phenyl)-N-(4-hydroxyphenyl)-5-methyl-N-phenyl-1H-pyrrole-3-carboxamide], in that order: 74.3 nM and 900 nM.
For `Cc1cc(C(=O)N(c2ccccc2)c2ccc(O)cc2)cn1-c1cc(F)ccc1C(=O)N1Cc2ccccc2C[C@H]1CN1CCN(C)CC1` [Example 21, 1-(5-fluoro-2-{[(3S)-3-[(4-methylpiperazin-1-yl)methyl]-3,4-dihydroisoquinolin-2(1H)-yl]carbonyl}phenyl)-N-(4-hydroxyphenyl)-5-methyl-N-phenyl-1H-pyrrole-3-carboxamide], in that order: 24.6 nM and 256 nM.
For `Cc1cc(C(=O)N(c2ccccc2)c2ccc(O)cc2)cn1-c1cc(Br)ccc1C(=O)N1Cc2ccccc2C[C@H]1CN1CCN(C)CC1` [Example 22, 1-(5-Bromo-2-{[(3S)-3-[(4-methylpiperazin-1-yl)methyl]-3,4-dihydroisoquinolin-2(1H)-yl]carbonyl}phenyl)-N-(4-hydroxyphenyl)-5-methyl-N-phenyl-1H-pyrrole-3-carboxamide], in that order: 10.7 nM and 142 nM.
Turning to `Cc1cc(C(=O)N(c2ccc(O)cc2)c2ccc3[nH]ccc3c2)cn1-c1ccccc1C(=O)N1Cc2ccccc2C[C@H]1CN(C)C` [Example 23, 1-(2-{[(3S)-3-[(Dimethylamino)methyl]-3,4-dihydroisoquinolin-2(1H)-yl]carbonyl}phenyl)-N-(4-hydroxyphenyl)-N-(1H-indol-5-yl)-5-methyl-1H-pyrrole-3-carboxamide], the IC50 on Bcl-2 protein came to 26.1 nM; in assay [1], 445 nM.
For `Cc1cc(C(=O)N(c2ccccc2)c2ccc(O)cc2)cn1-c1cc2c(cc1C(=O)N1Cc3ccccc3C[C@H]1CN1CCN(C)CC1)OCO2` [Example 24, N-(4-Hydroxyphenyl)-5-methyl-1-(6-{[(3S)-3-[(4-methylpiperazin-1-yl)methyl]-3,4-dihydroisoquinolin-2(1H)-yl]carbonyl}-1,3-benzodioxol-5-yl)-N-phenyl-1H-pyrrole-3-carboxamide], the IC50 at Bcl-2 protein amounted to 15.6 nM; in assay [1], 140 nM.
On to `Cc1cc(C(=O)N(c2ccccc2)c2ccc(O)cc2)cn1-c1ccc(Cl)cc1C(=O)N1Cc2ccccc2C[C@H]1CN1CCN(C)CC1` [Example 25, 1-(4-Chloro-2-{[(3S)-3-[(4-methylpiperazin-1-yl)methyl]-3,4-dihydroisoquinolin-2(1H)-yl]carbonyl}phenyl)-N-(4-hydroxyphenyl)-5-methyl-N-phenyl-1H-pyrrole-3-carboxamide], for which the IC50 came to 87.6 nM at Bcl-2 protein and 1100 nM in assay [1].
For `Cc1cc(C(=O)N(c2ccccc2)c2ccc(O)cc2)cn1-c1cc(Cl)ccc1C(=O)N1Cc2ccccc2C[C@H]1CN1CCN(C)CC1` [Example 26, 1-(5-Chloro-2-{[(3S)-3-[(4-methylpiperazin-1-yl)methyl]-3,4-dihydroisoquinolin-2(1H)-yl]carbonyl}phenyl)-N-(4-hydroxyphenyl)-5-methyl-N-phenyl-1H-pyrrole-3-carboxamide], in that order: 7.5 nM and 171 nM.
For `Cc1cc(C(=O)N(c2ccccc2)c2ccc(O)c(Cl)c2)cn1-c1cc(Cl)ccc1C(=O)N1Cc2ccccc2C[C@H]1CN1CCN(C)CC1` [Example 27, N-(3-Chloro-4-hydroxyphenyl)-1-(5-chloro-2-{[(3S)-3-[(4-methylpiperazin-1-yl)methyl]-3,4-dihydroisoquinolin-2(1H)-yl]carbonyl}phenyl)-5-methyl-N-phenyl-1H-pyrrole-3-carboxamide hydrochloride], in that order: 20.5 nM and 479 nM.
As to `NC[C@@H]1Cc2ccccc2CN1C(=O)c1ccccc1-n1nc(C(=O)N(c2ccccc2)c2ccccc2)c2ccc(C(=O)O)cc21` [Example 133, 1-{2-[(3S)-3-(Aminomethyl)-1,2,3,4-tetrahydroisoquinoline-2-carbonyl]-phenyl}-3-(diphenylcarbamoyl)-1H-indazole-6-carboxylic acid], the IC50 at Bcl-2 protein was 841 nM.
Regarding `CN1CCN(C[C@@H]2Cc3ccccc3CN2C(=O)c2cc(O)c(O)cc2-n2cc(C(=O)N(c3ccccc3)c3ccc(O)cc3)c3ccccc32)CC1` [Example 183, 1-{4,5-Dihydroxy-2-[(3S)-3-[(4-methylpiperazin-1-yl)methyl]-1,2,3,4-tetrahydroisoquinoline-2-carbonyl]phenyl}-N-(4-hydroxyphenyl)-N-phenyl-1H-indole-3-carboxamide], the IC50 on Bcl-2 protein turned out to be 8.3 nM.

Source of the values: US9765056B2, “Indole and pyrrole compounds, a process for their preparation and pharmaceutical compositions containing them” (LES LABORATOIRES SERVIER, priority 2013, dated 2017).
